{"source": "patent US20240115654A1", "about": "“INTRAVENOUS ADMINISTRATION OF ENGINEERED ANTIMICROBIAL AMPHIPHILIC PEPTIDES” (priority 2021, published 2024)", "key": {"[1]": {"tested_on": "Enterococcus faecalis ATCC 29212 (VSE; QC)", "type": "cell-based", "conditions": "Enterococcus faecalis ATCC 29212 (VSE; QC)", "method": "(§1) Each peptide was formulated in PBS buffer prior to testing. Peptides of SEQ ID NO:5 and SEQ ID NO:8 were brought up in 100% DMSO with 0.002% polysorbate-80 at 1.28 mg/mL (40× the highest final test concentration of 32 mcg/mL). Final test concentration of DMSO was 2.5% in the assay at the first dilution for those two compounds.\n(§2) Mueller Hinton II broth (MHB II; BD; Lot Nos. 6258541 and 7143896) was used for MIC testing of aerobic organisms. 0.002% polysorbate 80 (P80) was added to the test medium.\n(§3) MIC values were determined using a broth microdilution procedure described by CLSI (1, 3). Automated liquid handlers (Multidrop 384, Labsystems, Helsinki, Finland; Biomek 2000 and Biomek FX, Beckman Coulter, Fullerton CA) were used to conduct serial dilutions and liquid transfers.\n(§4) To prepare the drug mother plates, which would provide the serial peptide dilutions for the replicate daughter plates, the wells of columns 2-12 of standard 96-well microdilution plates (Costar 3795) were filled with 150 μl of the designated diluent for each row of peptide. The test articles and comparator compounds (300 μl at 40× the highest concentration to be tested) were dispensed into the appropriate wells in column 1. The Biomek 2000 was then used to make 2-fold serial dilutions in the mother plates from column 1 through column 11. The wells of Column 12 contained no drug and served as the organism growth control wells for the assay.\n(§5) The daughter plates were loaded with 185 μL per well of MHB II using the Multidrop 384. The daughter plates were completed on the Biomek FX instrument which transferred 5 uL of peptide solution from each well of a mother plate to the corresponding well of each daughter plate in a single step. A standardized inoculum of each test organism was prepared per CLSI methods. The inoculum for each organism was dispensed into sterile reservoirs divided by length (Beckman Coulter), and the Biomek 2000 was used to inoculate the plates. Daughter plates were placed on the Biomek 2000 work surface in reverse orientation so that inoculation took place from low to high drug concentration. The plates were then inoculated with 10 μL of the inoculum resulting in a final cell density of approximately 5×10^5 CFU/mL, per well.\n(§6) Plates were stacked 3-4 high, covered with a lid on the top plate, placed in plastic bags, and incubated at 35° C. for 16 to 20 hrs. Following incubation, the microplates were removed from the incubator and viewed from the bottom using a plate viewer. […] The MIC was read and recorded as the lowest concentration of peptide that inhibited visible growth of the organism."}, "[2]": {"tested_on": "Escherichia coli ATCC BAA-2471 (NDM-1)", "type": "cell-based", "conditions": "Escherichia coli ATCC BAA-2471 (NDM-1)", "method": "as §1, §2, §3, §4, §5, §6"}, "[3]": {"tested_on": "Klebsiella pneumoniae ATCC BAA-1705 (KPC)", "type": "cell-based", "method": "as §1, §2, §3, §4, §5, §6"}, "[4]": {"tested_on": "Pseudomonas aeruginosa ATCC 27853 (non-MDR; QC)", "type": "cell-based", "method": "as §1, §2, §3, §4, §5, §6"}, "[5]": {"tested_on": "Staphylococcus aureus ATCC 43300 (MRSA)", "type": "cell-based", "method": "as §1, §2, §3, §4, §5, §6"}, "[6]": {"tested_on": "Acinetobacter spp. isolates (n = 104)", "method": "(§7) Comparator antibiotics were supplied by Micromyx, and stock solutions were prepared on the first day of testing using solvents recommended by CLSI (1). Stock solutions of all compounds were made at 40× the final testing concentration and stored at −80° C. prior to testing. Information regarding compound source, catalog and lot number, testing concentrations and drug diluent for the comparators and test agent are detailed below in Table 3.\n(§8) The test organisms evaluated in this study consisted of clinical isolates from the Micromyx Repository and reference isolates from the American Type Culture Collection (ATCC; Manassas, VA). The clinical isolates were obtained from USA hospitals. Upon initial receipt at Micromyx, the organisms were sub-cultured onto an appropriate agar medium. Following incubation, colonies were harvested from these plates and cell suspensions prepared and frozen at −80° C. with a cryoprotectant. Prior to testing, the isolates were streaked from frozen vials onto Trypticase Soy Agar with 5% sheep blood (Becton Dickenson [BD]; Sparks, MD; Lot Nos. 7173618, 7166759, 7208688, 72144895, 7228505 and Remel Lenexa, KS Lot No. 212574). Plates were incubated at 35° C. overnight.\n(§9) Mueller Hinton II broth (MHB II; BD; Lot Nos. 6258541 and 7143896) was used for MIC testing of aerobic organisms.\nas §3\nas §4, with “drug” for “peptide”, “drug.” for “peptide.”\nas §5, with “μL” for “uL”, “drug” for “peptide”, “methods (1).” for “methods.”, “concentration.” for “concentration. The plates were then inoculated with 10 μL of the inoculum resulting in a final cell density of approximately 5×10^5 CFU/mL, per well.”\nas §6, with “drug” for “peptide”\n(§10) Clinical breakpoints to determine percent resistance within a given organism group were obtained from CLSI (3), with the exception of colistin for K. pneumoniae, Enterobacter spp., and E. coli, which are only available from EUCAST."}, "[7]": {"tested_on": "Escherichia coli isolates (n = 101)", "method": "as §7, §8, §9, §3\nas §4, with “drug” for “peptide”, “drug.” for “peptide.”\nas §5, with “μL” for “uL”, “drug” for “peptide”, “methods (1).” for “methods.”, “concentration.” for “concentration. The plates were then inoculated with 10 μL of the inoculum resulting in a final cell density of approximately 5×10^5 CFU/mL, per well.”\nas §6, with “drug” for “peptide”\nas §10"}, "[8]": {"tested_on": "Klebsiella pneumoniae isolates (n = 101)", "method": "as §7, §8, §9, §3\nas §4, with “drug” for “peptide”, “drug.” for “peptide.”\nas §5, with “μL” for “uL”, “drug” for “peptide”, “methods (1).” for “methods.”, “concentration.” for “concentration. The plates were then inoculated with 10 μL of the inoculum resulting in a final cell density of approximately 5×10^5 CFU/mL, per well.”\nas §6, with “drug” for “peptide”\nas §10"}, "[9]": {"tested_on": "Pseudomonas aeruginosa isolates (n = 109)", "method": "as §7, §8, §9, §3\nas §4, with “drug” for “peptide”, “drug.” for “peptide.”\nas §5, with “μL” for “uL”, “drug” for “peptide”, “methods (1).” for “methods.”, “concentration.” for “concentration. The plates were then inoculated with 10 μL of the inoculum resulting in a final cell density of approximately 5×10^5 CFU/mL, per well.”\nas §6, with “drug” for “peptide”\nas §10"}, "[10]": {"conditions": "Pseudomonas aeruginosa (n = 109)"}, "[11]": {"conditions": "Klebsiella pneumoniae (n = 101)"}}, "note": "Like-named read-outs stand apart in the source and are kept apart here. Peptide text beside a SMILES is read from it."}
{"molecule": "CC(C)[C@H](NC(=O)[C@H](Cc1c[nH]c2ccccc12)NC(=O)[C@H](CCCNC(=N)N)NC(=O)[C@H](CCCNC(=N)N)NC(=O)[C@@H](NC(=O)[C@@H](NC(=O)[C@H](CCCNC(=N)N)NC(=O)[C@@H](NC(=O)[C@@H](NC(=O)[C@H](CCCNC(=N)N)NC(=O)[C@H](CCCNC(=N)N)NC(=O)[C@H](Cc1c[nH]c2ccccc12)NC(=O)[C@@H](NC(=O)[C@H](CCCNC(=N)N)NC(=O)[C@H](CCCNC(=N)N)NC(=O)[C@@H](NC(=O)[C@H](CCCNC(=N)N)NC(=O)[C@H](CCCNC(=N)N)NC(=O)[C@@H](NC(=O)[C@H](Cc1c[nH]c2ccccc12)NC(=O)[C@H](CCCNC(=N)N)NC(=O)[C@@H](N)CCCNC(=N)N)C(C)C)C(C)C)C(C)C)C(C)C)C(C)C)C(C)C)C(C)C)C(=O)N[C@@H](CCCNC(=N)N)C(=O)N[C@@H](CCCNC(=N)N)C(N)=O", "note": "[SEQ ID NO: 1] (H-RRWVRRVRRVWRRVVRVVRRWVRR-NH2)", "values": [{"measurement": "MIC", "setting": "[1]", "value": 8, "unit": "µg/mL"}, {"measurement": "MIC", "setting": "[2]", "value": 2, "unit": "µg/mL"}, {"measurement": "MIC", "setting": "[3]; ATCC BAA-1705", "value": 8, "unit": "µg/mL"}, {"measurement": "MIC", "setting": "[4]; ATCC 27853", "value": 8, "unit": "µg/mL"}, {"measurement": "MIC", "setting": "[5]; ATCC 43300", "value": 4, "unit": "µg/mL"}, {"measurement": "Mode (MIC)", "setting": "[6]", "value": 4, "unit": "µg/mL"}, {"measurement": "MIC90", "setting": "[6]; Acinetobacter colistin-resistant, n=21", "value": 16, "unit": "µg/mL"}, {"measurement": "MIC90", "setting": "[6]; Acinetobacter spp. (n = 104)", "value": 16, "unit": "µg/mL"}, {"measurement": "Mode (MIC)", "setting": "[7]; isolates (n = 101)", "value": 2, "unit": "µg/mL"}, {"measurement": "MIC90", "setting": "[8]; K. pneumoniae colistin-resistant, n=28", "value": 16, "unit": "µg/mL"}, {"measurement": "MIC90", "setting": "[9]; P. aeruginosa colistin-resistant, n=8", "value": 16, "unit": "µg/mL"}, {"measurement": "MIC90", "setting": "[9]; [10]", "value": 16, "unit": "µg/mL"}]}
{"molecule": "Colistin [reference compound]", "values": [{"measurement": "MIC", "setting": "[1]", "value": ">32", "unit": "µg/mL"}, {"measurement": "MIC", "setting": "[2]", "value": 0.06, "unit": "µg/mL"}, {"measurement": "MIC", "setting": "[3]; Klebsiella pneumoniae ATCC BAA-1705 (KPC)", "value": 0.12, "unit": "µg/mL"}, {"measurement": "MIC", "setting": "[4]; Pseudomonas aeruginosa ATCC 27853 (non-MDR; QC)", "value": 0.25, "unit": "µg/mL"}, {"measurement": "MIC", "setting": "[5]; Staphylococcus aureus ATCC 43300 (MRSA)", "value": ">32", "unit": "µg/mL"}, {"measurement": "MIC50", "setting": "[6]; Acinetobacter spp. (n = 104)", "value": 0.25, "unit": "µg/mL"}, {"measurement": "MIC90", "setting": "[6]; Acinetobacter spp. (n = 104)", "value": ">32", "unit": "µg/mL"}, {"measurement": "Mode (MIC)", "setting": "[6]; Acinetobacter spp. (n = 104)", "value": 0.25, "unit": "µg/mL"}, {"measurement": "% R (percent of isolates resistant)", "setting": "[6]; Acinetobacter spp. (n = 104), CLSI breakpoints", "value": 20.2, "unit": "%"}, {"measurement": "MIC50", "setting": "[7]; Escherichia coli (n = 101)", "value": 0.12, "unit": "µg/mL"}, {"measurement": "MIC90", "setting": "[7]; Escherichia coli (n = 101)", "value": 0.12, "unit": "µg/mL"}, {"measurement": "MIC range", "setting": "[7]; Escherichia coli (n = 101)", "value": "≤0.03-0.5 ^ μg/mL"}, {"measurement": "Mode (MIC)", "setting": "[7]; Escherichia coli (n = 101)", "value": 0.12, "unit": "µg/mL"}, {"measurement": "% R (percent of isolates resistant)", "setting": "[7]; Escherichia coli (n = 101), CLSI breakpoints, colistin EUCAST", "value": 0, "unit": "%"}, {"measurement": "MIC50", "setting": "[8]; [11]", "value": 0.12, "unit": "µg/mL"}, {"measurement": "MIC90", "setting": "[8]; [11]", "value": 32, "unit": "µg/mL"}, {"measurement": "Mode (MIC)", "setting": "[8]; [11]", "value": 0.12, "unit": "µg/mL"}, {"measurement": "% R (percent of isolates resistant)", "setting": "[8]; Klebsiella pneumoniae (n = 101), CLSI breakpoints, colistin EUCAST", "value": 27.7, "unit": "%"}, {"measurement": "MIC50", "setting": "[9]; [10]", "value": 0.5, "unit": "µg/mL"}, {"measurement": "MIC90", "setting": "[9]; [10]", "value": 1, "unit": "µg/mL"}, {"measurement": "Mode (MIC)", "setting": "[9]; [10]", "value": 0.5, "unit": "µg/mL"}, {"measurement": "% R (percent of isolates resistant)", "setting": "[9]; Pseudomonas aeruginosa (n = 109), CLSI breakpoints", "value": 7.3, "unit": "%"}]}
